Like-named read-outs stand apart in the source and are kept apart here.
Key:
[1] = biological target: lysine gingipain (Kgp) (Porphyromonas gingivalis (Bacteroides gingivalis), UniProt P72194); experiment: biochemical; format: biochemical; conditions: IC50 (nM) Kgp
Description: (§1) The specific assay conditions were as follows. Buffer: pH=7.5, 100 mM Tris-HCl, 75 mM NaCl, 2.5 mM CaCl2), 10 mM cysteine, 1% DMSO after all additions. Protein: 0.1 nM Kgp, isolated from culture of Porphyromonas gingivalis, as described by Pike et al. (J. Biol. Chem. 1994, 269(1), 406), and Potempa and Nguyen (Current Protocols in Protein Science. 2007, 21.20.1-21.20.27). Fluorogenic substrate: 10 μM Z-His-Glu-Lys-MCA. Time=90 minutes. Temperature=37° C.
(§2) Further assays to measure the inhibitory activity of compounds of the present invention against Kgp and cathepsins B, H, K, L, and S were conducted as described in Example 66. The capacities of the compounds to inhibit the activity of cathepsins F, V, and Z were also measured.

[2] = biological target: Cathepsin S (Homo sapiens (Human), UniProt P25774); experiment: Cathepsin S inhibition assay; format: biochemical; conditions: read-out: IC50 (nM) CatS
Description: (§3) The capacities of compounds of the present invention to inhibit the activity of cathepsins B, H, K, L, and S were measured in similar assays. Boc-Leu-Arg-Arg-AMC (20 μM) in sodium acetate buffer (50 mM, pH 5.5) containing DTT (1 mM) and EDTA (2 mM) was used for the Cathepsin B assay. L-Arg-AMC (20 μM) in sodium acetate buffer (50 mM, pH 5.5) containing DTT (1 mM) and EDTA (2 mM) was used for the Cathepsin H assay. Z-Phe-Arg-AMC (10 μM) in HEPES buffer (50 mM, pH 7.4) containing DTT (2.5 mM) and EDTA (1 mM) was used for the Cathepsin K assay. Z-Phe-Arg-AMC (20 μM) in sodium acetate buffer (50 mM, pH 5.5) containing DTT (1 mM) and EDTA (2 mM) was used for the Cathepsin L assay. Z-Leu-Arg-AMC (10 μM) in sodium acetate buffer (25 mM, pH 4.5) containing DTT (2.5 mM) and NaCl (50 mM) was used for the Cathepsin S assay. The capacities of the compounds to inhibit the activity of cathepsins F, V, and Z were also measured.
as §2

[3] = biological target: Cathepsin L (Homo sapiens (Human), UniProt P07711); experiment: Cathepsin L inhibition assay; format: biochemical; conditions: read-out: IC50 (nM) CatL
Description: as §3, §2

[4] = biological target: Cathepsin H (Homo sapiens (Human), UniProt P09668); experiment: Cathepsin H inhibition assay; format: biochemical; conditions: Table 3; read-out: IC50 (nM) CatH
Description: as §3, §2

[5] = biological target: Cathepsin B (Homo sapiens (Human), UniProt P07858); experiment: Cathepsin B inhibition assay; format: biochemical; conditions: read-out: IC50 (nM) CatB
Description: as §3, §2

[6] = biological target: Cathepsin K (Homo sapiens (Human), UniProt P43235); experiment: Cathepsin K inhibition assay; format: biochemical; conditions: read-out: IC50 (nM) CatK
Description: as §3, §2

[7] = system: lysine gingipain (Kgp); experiment: biochemical; format: biochemical, Porphyromonas gingivalis; conditions: as compared to reference compound 73
Description: as §1, §2

COC(C)(C)C(=O)NC(CCCCN)C(=O)COc1cc(C)nc(C)c1 (centres unmarked) [Compound 63a]
IC50 ([1]; Table 4): 0.09 nM

NCCCCC(NC(=O)c1ccc(F)nc1)C(=O)COc1c(F)cccc1F (centres unmarked) [Compound 29a]
IC50 ([1]; Table 4): 0.31 nM

NCCCC[C@H](NC(=O)C1CCCC1)C(=O)COc1c(F)ccc(F)c1F (racemic) [1a - non-racemic]
IC50 ([2]; Table 3): 29500 nM
IC50 ([3]; Table 3): 4680 nM
IC50 [4]: 560 nM
IC50 ([5]; Table 3): 380 nM
IC50 ([6]; Table 3): 170 nM

NCCCCC(NC(=O)C1CCCC1)C(=O)COCC(F)(F)F (centres unmarked) [Compound 17a]
IC50 ([1]; Table 3): > 100 nM

NCCCCC(NC(=O)C1CCCC1)C(=O)COc1ccon1 (centres unmarked) [Compound 49a]
IC50 ([1]; Table 4): 0.23 nM

NCCCCC(NC(=O)C1CCCC1)C(=O)COc1cccc(F)c1 (centres unmarked) [Compound 7a]
IC50 ([2]; Table 3): 24100 nM
IC50 ([2]; Table 4): > 10000 nM
IC50 ([3]; Table 3): 5530 nM
IC50 ([3]; Table 4): > 10000 nM
IC50 ([1]; Table 3): 1.3 nM
IC50 ([1]; Table 4): 1.3 nM
IC50 ([5]; Table 3): 49600 nM
IC50 ([5]; Table 4): > 10000 nM
IC50 ([6]; Table 3): 20200 nM
IC50 ([6]; Table 4): > 10000 nM

NCCCCC(NC(=O)C1CCCC1)C(=O)Cn1cncc(F)c1=O (centres unmarked) [Compound 41a]
IC50 ([1]; Table 4): > 100 nM

CSCC(=O)C(CCCCN)NC(=O)C1CCCC1 (centres unmarked) [Compound 16a]
IC50 ([1]; Table 3): > 100 nM

NCCCCC(NC(=O)C1CCCC1)C(=O)Cn1ccc(=O)nc1 (centres unmarked) [Compound 40a]
IC50 ([1]; Table 4): 30.3 nM

CN(C)c1ccc(C(=O)NC(CCCCN)C(=O)COc2ccon2)cn1 (centres unmarked) [Compound 62a]
IC50 ([1]; Table 4): 0.14 nM

NCCCC[C@H](NC(=O)c1ccccn1)C(=O)COc1c(F)ccc(F)c1F [Compound 50, (S)—N-(7-amino-2-oxo-1-(2,3,6-trifluorophenoxy)heptan-3-yl)picolinamide]
selectivity for Kgp over endogenous cathepsins [7]: increased selectivity

NCCCCC(NC(=O)C1CCCC1)C(=O)COc1cc(F)cc(F)c1 (centres unmarked) [Compound 8a]
IC50 ([2]; Table 3): > 100000 nM
IC50 ([3]; Table 3): > 100000 nM
IC50 ([1]; Table 3): 0.34 nM
IC50 ([5]; Table 3): 68300 nM
IC50 ([6]; Table 3): > 100000 nM

NCCCCC(NC(=O)C1CCCC1)C(=O)Cn1cnccc1=O (centres unmarked) [Compound 39a]
IC50 ([1]; Table 4): > 100 nM

COC(C)(C)C(=O)NC(CCCCN)C(=O)COc1c(F)cccc1F (centres unmarked) [Compound 48a]
IC50 ([1]; Table 4): 0.07 nM

NCCCCC(NC(=O)C1CCCC1)C(=O)COc1cc(F)cc(F)c1F (centres unmarked) [Compound 4a]
IC50 ([2]; Table 3): > 100000 nM
IC50 ([3]; Table 3): > 100000 nM
IC50 ([1]; Table 3): 0.07 nM
IC50 ([5]; Table 3): 2640 nM
IC50 ([6]; Table 3): > 100000 nM

CN(C)CC(=O)C(CCCCN)NC(=O)C1CCCC1 (centres unmarked) [Compound 19a]
IC50 ([1]; Table 3): > 100 nM

NCCCCC(NC(=O)c1cccnc1F)C(=O)COc1c(F)cccc1F (centres unmarked) [Compound 32a]
IC50 ([1]; Table 4): 0.08 nM

NCCCCC(NC(=O)c1cccnc1)C(=O)COc1c(F)cccc1F (centres unmarked) [Compound 43a]
IC50 ([1]; Table 4): 0.09 nM

NCCCCC(NC(=O)c1ccnc(F)c1)C(=O)COc1c(F)cccc1F (centres unmarked) [Compound 31a]
IC50 ([1]; Table 4): 0.15 nM

NCCCCC(NC(=O)c1cccc(OCCCF)c1)C(=O)COc1c(F)cccc1F (centres unmarked) [Compound 30a]
IC50 ([1]; Table 4): 0.21 nM

[N-]=[N+]=Nc1cccc(C(=O)NC(CCCCN)C(=O)COc2c(F)cccc2F)c1 (centres unmarked) [Compound 12a]
IC50 ([1]; Table 3): 0.08 nM

NCCCC[C@H](NC(=O)C1CCCC1)C(=O)COC(C(F)(F)F)C(F)(F)F [Compound 18, (S)—N-(7-amino-1-((1,1,1,3,3,3-hexafluoropropan-2-yl)oxy)-2-oxoheptan-3-yl)cyclopentanecarboxamide]
selectivity for Kgp over endogenous cathepsins [7]: far more selective

[N-]=[N+]=Nc1cccc(C(=O)NC(CCCCN)C(=O)COc2c(F)cccc2F)c1 (centres unmarked) [Compound 33a]
IC50 ([1]; Table 4): 0.08 nM

Reference: patent US10730826B2, “Ketone inhibitors of lysine gingipain” (CORTEXYME, INC., priority 2016, dated 2020)
